Tests used:
Assay in all cases: KINOMEscan competition binding
CLK3 (human) = CLK3 (human) (UniProt P49761); details: compound 10.0 µM
PDGFRB (human) = PDGFRB (human) (UniProt P09619); details: compound 10.0 µM
TNNI3K (human) = TNNI3K (human) (UniProt Q59H18); details: compound 10.0 µM
[1] = biological target: JAK3 JH1 catalytic (human) (UniProt P52333); details: compound 10.0 µM
BMP2K (human) = BMP2K (human) (UniProt Q9NSY1); details: compound 10.0 µM
RPS6KA6 KD1 (human) = RPS6KA6 KD1 (human) (UniProt Q9UK32); details: compound 10.0 µM
RIOK2 (human) = RIOK2 (human) (UniProt Q9BVS4); details: compound 10.0 µM
ACVR1B (human) = ACVR1B (human) (UniProt P36896); details: compound 10.0 µM
TNIK (human) = TNIK (human) (UniProt Q9UKE5); details: compound 10.0 µM
MAPK11 (human) = MAPK11 (human) (UniProt Q15759); details: compound 10.0 µM
LRRK2 (human) = LRRK2 (human) (UniProt Q5S007)
Chain of LRRK2 (human) (Q5S007 whole entry, looked up): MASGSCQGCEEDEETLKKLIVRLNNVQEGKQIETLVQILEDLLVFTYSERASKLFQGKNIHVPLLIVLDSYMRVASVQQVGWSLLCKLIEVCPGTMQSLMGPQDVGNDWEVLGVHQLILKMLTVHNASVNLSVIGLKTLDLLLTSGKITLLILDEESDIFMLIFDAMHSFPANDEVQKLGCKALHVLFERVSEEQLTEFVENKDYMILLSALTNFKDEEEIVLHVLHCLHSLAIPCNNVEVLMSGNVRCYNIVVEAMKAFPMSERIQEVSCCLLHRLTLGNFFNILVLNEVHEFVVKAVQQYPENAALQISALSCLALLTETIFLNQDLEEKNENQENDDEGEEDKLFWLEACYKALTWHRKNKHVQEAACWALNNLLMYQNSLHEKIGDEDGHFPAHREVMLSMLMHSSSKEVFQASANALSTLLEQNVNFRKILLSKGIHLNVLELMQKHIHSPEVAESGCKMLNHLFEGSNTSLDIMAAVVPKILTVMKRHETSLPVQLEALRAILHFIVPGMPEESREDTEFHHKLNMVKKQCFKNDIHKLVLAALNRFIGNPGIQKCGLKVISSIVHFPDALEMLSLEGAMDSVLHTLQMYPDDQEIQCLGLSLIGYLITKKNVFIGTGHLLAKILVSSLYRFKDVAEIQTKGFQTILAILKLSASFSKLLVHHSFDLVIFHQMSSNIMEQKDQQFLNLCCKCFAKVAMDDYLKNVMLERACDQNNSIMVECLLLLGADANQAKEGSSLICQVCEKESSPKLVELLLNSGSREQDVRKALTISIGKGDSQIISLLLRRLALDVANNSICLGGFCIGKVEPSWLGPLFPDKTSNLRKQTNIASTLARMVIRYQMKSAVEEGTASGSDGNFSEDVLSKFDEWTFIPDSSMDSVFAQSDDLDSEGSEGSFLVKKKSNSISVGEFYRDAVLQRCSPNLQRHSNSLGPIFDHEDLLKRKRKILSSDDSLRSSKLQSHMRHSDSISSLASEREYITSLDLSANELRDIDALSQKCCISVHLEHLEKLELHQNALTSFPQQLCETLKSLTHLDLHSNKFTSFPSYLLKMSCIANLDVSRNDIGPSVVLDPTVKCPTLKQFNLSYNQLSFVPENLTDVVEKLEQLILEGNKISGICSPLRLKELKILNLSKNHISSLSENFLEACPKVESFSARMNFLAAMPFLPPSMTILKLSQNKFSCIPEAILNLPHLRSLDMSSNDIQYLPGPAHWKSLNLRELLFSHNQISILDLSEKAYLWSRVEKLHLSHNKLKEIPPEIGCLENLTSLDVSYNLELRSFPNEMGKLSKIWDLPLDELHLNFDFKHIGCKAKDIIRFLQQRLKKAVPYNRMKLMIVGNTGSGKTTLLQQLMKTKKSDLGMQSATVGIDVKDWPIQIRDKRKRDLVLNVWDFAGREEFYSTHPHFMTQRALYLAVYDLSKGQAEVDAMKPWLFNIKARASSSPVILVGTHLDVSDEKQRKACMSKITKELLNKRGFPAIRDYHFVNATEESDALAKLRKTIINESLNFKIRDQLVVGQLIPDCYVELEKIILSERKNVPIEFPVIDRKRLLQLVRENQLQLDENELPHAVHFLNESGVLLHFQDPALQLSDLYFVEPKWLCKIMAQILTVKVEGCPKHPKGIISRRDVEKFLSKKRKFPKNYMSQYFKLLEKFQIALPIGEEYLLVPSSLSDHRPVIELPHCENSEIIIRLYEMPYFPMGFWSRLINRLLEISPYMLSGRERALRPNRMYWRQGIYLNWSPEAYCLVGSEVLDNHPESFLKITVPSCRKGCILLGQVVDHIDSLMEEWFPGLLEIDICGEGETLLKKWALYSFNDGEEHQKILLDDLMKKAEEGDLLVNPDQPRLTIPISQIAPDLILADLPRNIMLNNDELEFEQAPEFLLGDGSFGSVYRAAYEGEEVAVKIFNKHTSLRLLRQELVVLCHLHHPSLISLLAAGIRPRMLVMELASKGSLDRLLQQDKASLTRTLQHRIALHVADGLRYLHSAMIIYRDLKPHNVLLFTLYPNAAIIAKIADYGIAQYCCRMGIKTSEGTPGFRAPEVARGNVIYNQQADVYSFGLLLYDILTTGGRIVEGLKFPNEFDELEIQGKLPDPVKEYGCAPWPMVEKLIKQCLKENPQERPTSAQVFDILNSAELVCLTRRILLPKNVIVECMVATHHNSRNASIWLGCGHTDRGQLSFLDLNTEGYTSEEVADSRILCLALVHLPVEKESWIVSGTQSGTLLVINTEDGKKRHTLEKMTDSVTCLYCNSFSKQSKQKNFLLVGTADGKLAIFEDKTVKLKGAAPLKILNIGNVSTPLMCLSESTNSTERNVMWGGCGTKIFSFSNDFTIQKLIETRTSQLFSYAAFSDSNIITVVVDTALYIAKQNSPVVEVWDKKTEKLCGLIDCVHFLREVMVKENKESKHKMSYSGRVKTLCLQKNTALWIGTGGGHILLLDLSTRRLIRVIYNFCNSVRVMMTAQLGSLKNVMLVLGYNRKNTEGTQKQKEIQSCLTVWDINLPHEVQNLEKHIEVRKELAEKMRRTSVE

[2] = system: EGFR (human), P00533 [T790M/L858R]; details: compound 10.0 µM
RPS6KA1 KD1 (human) = RPS6KA1 KD1 (human) (UniProt Q15418); details: compound 10.0 µM
MAPKAPK2 (human) = MAPKAPK2 (human) (UniProt P49137); details: compound 10.0 µM
MYLK4 (human) = MYLK4 (human) (UniProt Q86YV6); details: compound 10.0 µM
[3] = system: KIT (human), P10721 [V559D/T670I]; details: compound 10.0 µM
NEK6 (human) = NEK6 (human) (UniProt Q9HC98); details: compound 10.0 µM
ADCK3 (human) = ADCK3 (human) (UniProt Q8NI60); details: compound 10.0 µM
Chain of ADCK3 (human) (Q8NI60 whole entry, looked up): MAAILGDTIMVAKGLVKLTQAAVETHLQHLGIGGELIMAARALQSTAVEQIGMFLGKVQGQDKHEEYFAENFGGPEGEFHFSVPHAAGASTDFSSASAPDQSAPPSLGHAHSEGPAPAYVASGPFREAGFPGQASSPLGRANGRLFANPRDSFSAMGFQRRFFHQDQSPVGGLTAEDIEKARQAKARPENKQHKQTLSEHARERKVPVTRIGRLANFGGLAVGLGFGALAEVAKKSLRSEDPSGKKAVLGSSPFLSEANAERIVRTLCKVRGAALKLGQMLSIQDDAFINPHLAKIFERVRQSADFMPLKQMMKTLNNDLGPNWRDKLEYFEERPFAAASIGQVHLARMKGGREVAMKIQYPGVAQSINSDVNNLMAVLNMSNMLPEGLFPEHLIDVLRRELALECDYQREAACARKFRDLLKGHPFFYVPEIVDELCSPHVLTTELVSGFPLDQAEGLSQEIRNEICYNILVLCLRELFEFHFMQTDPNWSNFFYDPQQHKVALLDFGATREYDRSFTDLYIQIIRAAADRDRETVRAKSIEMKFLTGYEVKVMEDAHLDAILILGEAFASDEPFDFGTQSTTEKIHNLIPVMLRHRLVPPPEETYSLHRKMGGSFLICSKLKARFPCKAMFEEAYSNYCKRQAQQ

PRKCH (human) = PRKCH (human) (UniProt P24723); details: compound 10.0 µM
DAPK2 (human) = DAPK2 (human) (UniProt Q9UIK4); details: compound 10.0 µM
AURKB (human) = AURKB (human) (UniProt Q96GD4); details: compound 10.0 µM
[4] = system: FLT3 (human), P36888 [D835H]; details: compound 10.0 µM
[5] = system: KIT (human), P10721 [D816H]; details: compound 10.0 µM
PDPK1 (human) = PDPK1 (human) (UniProt O15530); details: compound 10.0 µM
IRAK3 (human) = IRAK3 (human) (UniProt Q9Y616); details: compound 10.0 µM
STK38 (human) = STK38 (human) (UniProt Q15208); details: compound 10.0 µM
Chain of STK38 (human) (Q15208 whole entry, looked up): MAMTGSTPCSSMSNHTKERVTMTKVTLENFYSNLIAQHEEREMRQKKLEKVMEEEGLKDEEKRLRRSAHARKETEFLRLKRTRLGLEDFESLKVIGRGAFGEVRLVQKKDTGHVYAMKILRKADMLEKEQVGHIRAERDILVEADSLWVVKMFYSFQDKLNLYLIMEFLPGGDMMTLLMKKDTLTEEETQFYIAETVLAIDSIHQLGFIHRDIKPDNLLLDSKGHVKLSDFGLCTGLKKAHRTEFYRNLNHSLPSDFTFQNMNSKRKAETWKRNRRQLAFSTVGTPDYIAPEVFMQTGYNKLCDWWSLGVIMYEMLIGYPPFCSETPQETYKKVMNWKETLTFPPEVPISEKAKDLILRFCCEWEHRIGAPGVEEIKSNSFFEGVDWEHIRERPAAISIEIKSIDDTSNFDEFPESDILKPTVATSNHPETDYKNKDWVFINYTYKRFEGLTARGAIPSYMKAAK

IRAK1 (human) = IRAK1 (human) (UniProt P51617); details: compound 10.0 µM
PRKACA (human) = PRKACA (human) (UniProt P17612); details: compound 10.0 µM
NUAK1 (human) = NUAK1 (human) (UniProt O60285); details: compound 10.0 µM
SRPK3 (human) = SRPK3 (human) (UniProt Q9UPE1); details: compound 10.0 µM
EPHA7 (human) = EPHA7 (human) (UniProt Q15375); details: compound 10.0 µM
CDKL5 (human) = CDKL5 (human) (UniProt O76039); details: compound 10.0 µM
ROCK2 (human) = ROCK2 (human) (UniProt O75116); details: compound 10.0 µM
NEK7 (human) = NEK7 (human) (UniProt Q8TDX7); details: compound 10.0 µM
Chain of NEK7 (human) (Q8TDX7 whole entry, looked up): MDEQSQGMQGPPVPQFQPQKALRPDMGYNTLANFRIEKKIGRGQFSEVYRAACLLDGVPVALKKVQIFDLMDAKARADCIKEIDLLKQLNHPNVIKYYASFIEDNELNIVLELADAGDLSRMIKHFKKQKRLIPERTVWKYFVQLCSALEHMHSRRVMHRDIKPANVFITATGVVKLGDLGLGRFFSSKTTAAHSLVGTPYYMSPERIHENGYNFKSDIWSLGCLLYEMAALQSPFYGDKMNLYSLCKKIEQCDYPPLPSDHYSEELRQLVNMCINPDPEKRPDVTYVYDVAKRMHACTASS

MAPK9 (human) = MAPK9 (human) (UniProt P45984); details: compound 10.0 µM
STK32B (human) = STK32B (human) (UniProt Q9NY57); details: compound 10.0 µM
CIT (human) = CIT (human) (UniProt O14578); details: compound 10.0 µM
STK11 (human) = STK11 (human) (UniProt Q15831); details: compound 10.0 µM
SYK (human) = SYK (human) (UniProt P43405); details: compound 10.0 µM
LATS1 (human) = LATS1 (human) (UniProt O95835); details: compound 10.0 µM
PKN2 (human) = PKN2 (human) (UniProt Q16513); details: compound 10.0 µM

Chain of BMP2K (human) (Q9NSY1 whole entry, looked up): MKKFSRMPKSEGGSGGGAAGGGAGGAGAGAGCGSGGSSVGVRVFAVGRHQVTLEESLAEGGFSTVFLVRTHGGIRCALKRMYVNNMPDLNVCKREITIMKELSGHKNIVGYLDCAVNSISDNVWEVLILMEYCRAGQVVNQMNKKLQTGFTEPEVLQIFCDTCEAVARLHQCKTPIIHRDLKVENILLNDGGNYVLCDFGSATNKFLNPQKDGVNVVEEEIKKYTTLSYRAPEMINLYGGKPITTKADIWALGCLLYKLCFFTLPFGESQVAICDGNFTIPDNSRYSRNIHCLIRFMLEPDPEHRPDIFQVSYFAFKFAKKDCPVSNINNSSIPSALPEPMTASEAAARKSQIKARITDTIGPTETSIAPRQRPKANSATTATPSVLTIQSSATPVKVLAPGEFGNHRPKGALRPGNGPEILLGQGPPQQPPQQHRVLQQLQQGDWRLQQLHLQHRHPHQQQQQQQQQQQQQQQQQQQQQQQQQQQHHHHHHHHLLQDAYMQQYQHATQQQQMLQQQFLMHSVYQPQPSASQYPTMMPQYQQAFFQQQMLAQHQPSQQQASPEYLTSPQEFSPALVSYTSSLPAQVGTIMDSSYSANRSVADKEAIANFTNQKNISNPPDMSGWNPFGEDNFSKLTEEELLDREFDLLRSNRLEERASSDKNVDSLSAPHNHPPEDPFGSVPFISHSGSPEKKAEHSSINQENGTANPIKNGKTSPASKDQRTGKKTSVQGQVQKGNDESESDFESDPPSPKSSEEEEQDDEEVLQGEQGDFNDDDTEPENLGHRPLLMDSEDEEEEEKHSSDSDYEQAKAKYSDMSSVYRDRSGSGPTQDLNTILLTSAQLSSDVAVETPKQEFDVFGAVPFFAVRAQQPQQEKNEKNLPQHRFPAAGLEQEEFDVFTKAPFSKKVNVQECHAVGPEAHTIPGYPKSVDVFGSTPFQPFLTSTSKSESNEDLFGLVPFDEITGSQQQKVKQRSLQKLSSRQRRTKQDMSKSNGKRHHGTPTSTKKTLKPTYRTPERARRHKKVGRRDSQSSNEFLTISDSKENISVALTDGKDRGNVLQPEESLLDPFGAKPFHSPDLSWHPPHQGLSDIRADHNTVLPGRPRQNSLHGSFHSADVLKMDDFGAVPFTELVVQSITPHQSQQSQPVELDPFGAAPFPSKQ

COc1cc(C(=O)N2CCC(N3CCN(C)CC3)CC2)ccc1Nc1ncc2c(n1)N(C)c1ccccc1C(=O)N2C was tested, and the kinase still bound, per cent of control (CLK3 (human)) was 95%, the kinase still bound, per cent of control (PDGFRB (human)) was 100% and the kinase still bound, per cent of control (TNNI3K (human)) was 100%. For the same molecule, the kinase still bound, per cent of control [1] was 100%, the kinase still bound, per cent of control (BMP2K (human)) was 100% and the kinase still bound, per cent of control (RPS6KA6 KD1 (human)) was 92%. It also gave a kinase still bound, per cent of control (RIOK2 (human)) of 100%, a kinase still bound, per cent of control (ACVR1B (human)) of 100% and a kinase still bound, per cent of control (TNIK (human)) of 100%. It also gave a kinase still bound, per cent of control (MAPK11 (human)) of 60%, a Kd (LRRK2 (human)) of 20 nM and a kinase still bound, per cent of control (LRRK2 (human); compound 10.0 µM) of 0%. The kinase still bound, per cent of control [2] was 84%, the kinase still bound, per cent of control (RPS6KA1 KD1 (human)) was 73% and the kinase still bound, per cent of control (MAPKAPK2 (human)) was 100%. For the same molecule, the kinase still bound, per cent of control (MYLK4 (human)) was 80%, the kinase still bound, per cent of control [3] was 81% and the kinase still bound, per cent of control (NEK6 (human)) was 76%. It also gave a kinase still bound, per cent of control (ADCK3 (human)) of 71%, a kinase still bound, per cent of control (PRKCH (human)) of 100% and a kinase still bound, per cent of control (DAPK2 (human)) of 67%. The kinase still bound, per cent of control (AURKB (human)) was 38%, the kinase still bound, per cent of control [4] was 100% and the kinase still bound, per cent of control [5] was 100%. It also gave a kinase still bound, per cent of control (PDPK1 (human)) of 100%, a kinase still bound, per cent of control (IRAK3 (human)) of 100% and a kinase still bound, per cent of control (STK38 (human)) of 96%. For the same molecule, the kinase still bound, per cent of control (IRAK1 (human)) was 100%, the residual activity (PRKACA (human)) was 100% and the kinase still bound, per cent of control (NUAK1 (human)) was 47%. The kinase still bound, per cent of control (SRPK3 (human)) was 72%, the kinase still bound, per cent of control (EPHA7 (human)) was 97% and the residual activity (CDKL5 (human)) was 100%. For the same molecule, the kinase still bound, per cent of control (ROCK2 (human)) was 87%, the kinase still bound, per cent of control (NEK7 (human)) was 100% and the kinase still bound, per cent of control (MAPK9 (human)) was 94%. For the same molecule, the kinase still bound, per cent of control (STK32B (human)) was 100%, the kinase still bound, per cent of control (CIT (human)) was 99% and the kinase still bound, per cent of control (STK11 (human)) was 96%. The kinase still bound, per cent of control (SYK (human)) was 100%, the kinase still bound, per cent of control (LATS1 (human)) was 100% and the kinase still bound, per cent of control (PKN2 (human)) was 95%.
